Here are results for 2 compounds from US20210228685A1, “IMPROVED WEIGHT LOSS THERAPY” (BIOREG LLC, priority 2018, published 2021).

One experiment has as its target T1, ATGL (Mus musculus, UniProt Q8BJ56).
T1 construct: endogenous in cells; host or cells: differentiated SVF adipocytes
T1 sequence (Q8BJ56 1-486): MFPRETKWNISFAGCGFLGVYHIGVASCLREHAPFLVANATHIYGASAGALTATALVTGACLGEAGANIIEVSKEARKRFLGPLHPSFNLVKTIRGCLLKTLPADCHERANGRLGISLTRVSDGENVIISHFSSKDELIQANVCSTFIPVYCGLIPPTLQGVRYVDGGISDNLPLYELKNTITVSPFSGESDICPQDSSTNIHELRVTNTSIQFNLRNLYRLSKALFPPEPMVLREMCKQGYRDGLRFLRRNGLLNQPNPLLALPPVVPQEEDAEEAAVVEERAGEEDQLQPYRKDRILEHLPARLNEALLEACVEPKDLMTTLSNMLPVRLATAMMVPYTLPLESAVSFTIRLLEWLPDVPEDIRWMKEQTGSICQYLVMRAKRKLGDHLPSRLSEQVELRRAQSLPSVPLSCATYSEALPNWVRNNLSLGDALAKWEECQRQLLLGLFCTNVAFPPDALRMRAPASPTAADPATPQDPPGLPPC
The experiment can be described thus: Atglistatin inhibition of rLIF- or isoproterenol-induced adipocyte lipolysis. In kind it is cell-based. Particulars: 1 ng/ml rLIF, increasing concentrations of Atglistatin. As to the method:
Using the tissue culture adipocyte lipolysis assay, we tested both purified recombinant versions of LIF for their ability to stimulate lipolysis. FIG. 1B-D show adipocyte lipolysis and signaling in wild-type and mutant rLIF-treated adipocytes. Differentiated adipocytes in a 12-well format were treated in a final volume of 1.5 ml of medium supplemented with either the indicated concentration of rLIF or rLIF K159A (FIG. 1B-C); or 30 nM Isoprotererenol or 1 ng/ml rLIF in the absence or presence of the indicated concentration of Atglistatin (FIG. 1D). After incubation for 20 h at 37° C., medium was collected and glycerol concentration was measured using the adipocyte lipolysis assay (FIGS. 1B and D) or adipocyte cells were harvested and subjected to IB analysis (FIG. 1C) ([…]) with the indicated antibody. Each data point (FIG. 1B) represents the mean±SEM of the relative change in medium glycerol concentration compared to conditions containing rLIF without Atglistatin (red, 26 μM) or isoproterenol without Atglistatin (black, 83 μM). As shown in (FIG. 1B), in vitro adipocyte lipolysis activity with WT rLIF was increased over background by ˜5-fold compared with mutant rLIF K159A.
In adipocytes, triglycerides are sequentially hydrolyzed by ATGL, HSL, and monoacylglycerol lipase (MGL). […]

Experiment [1] deals with differentiated SVF adipocytes. Description: adipocyte lipolysis assay (glycerol released into the medium). Particulars: 12-well format, 20 h at 37° C., without Atglistatin; 1 ng/ml rLIF or 30 nM isoproterenol. It counts as cell-based. The procedure:
Conditioned medium from the C26c20 and MC-38 cells was subsequently placed on differentiated adipocytes, and the amount of glycerol released into the medium was quantified. Glycerol release into the medium is a marker for triglyceride lipolysis in adipocytes (27).
SVF preadipocytes were differentiated into adipocytes as follows: On day −3, SVF preadipocytes were set up in 1 ml medium B at a density of 1×10^6 cells/well of 12-well plates or 3.3×10^5 cells/well of 48-well plates. […] After 2 minutes, the amount of absorbance per well was measured using a Tecan microplate reader (absorbance 540 nm). The amount of glycerol concentration released into the medium per condition over background was calculated using the measured absorbance relative to the absorbance of the standardized curve.
To identify the proteins that mediated lipolysis in C26c20 conditioned medium, we carried out a biochemical purification using the lipolysis assay described above using SVF preadipocytes differentiated into adipocytes set up in 12-well plates or 48-well plates. […] After 2 minutes, the amount of absorbance per well was measured using a Tecan microplate reader (absorbance 540 nm). The amount of glycerol concentration released into the medium per condition over background was calculated using the measured absorbance relative to the absorbance of the standardized curve. […]

Consider `CN(C)C(=O)Nc1cccc(-c2ccc(N(C)C)cc2)c1` [Atglistatin], for which the “inhibition of rLIF-induced lipolysis” value at ATGL is “inhibited”.

Take `CC(C)NCC(O)c1ccc(O)c(O)c1` (centres unmarked) [isoproterenol]: the medium glycerol concentration in experiment [1] worked out at 83 µM.
